Test results published in patent US10722484B2, “Methods of cancer treatment” (K-Gen, Inc., priority 2016, dated 2020).
Like-named read-outs stand apart in the source and are kept apart here.

Assays:
[1] = tested on: A549 lung cancer cell line; assay: Combination viability/proliferation assays (384-well IC50 ratio, 96-well MacSynergy II); format: cell-based
Protocol: (§1) A 96-well MacSynergy II format for combination test was also used. […] The analysis was done with the SQRT(Data) scale and the four parameter Hill curve was fitted using XLfit5.1 (the MacSynergy II Excel Spreadsheet) for the inhibition data. Synergy (positive number) or Antagonism (negative number) volumes were calculated. […] Three-dimensional MacSynergy II graphs were generated where positive values indicated synergism and negative values indicated antagonism.

[2] = tested on: MiaPaCa-2; assay: Combination viability/proliferation assays; format: cell-based
Protocol: as §1

[3] = tested on: A549; assay: Proliferation assay (CellTiter Glo); format: cell-based; settings: 96 hours
Protocol: (§2) The dose range for most compounds was 4.6 nM-30 μM. The dose ranges for some compounds were adjusted downward to 0.46 nM-3 μM or 0.08 nM-0.5 μM or 0.03 nM-0.2 μM. […] The results are shown in Tables 3-6 for pancreatic cancer, lung cancer, colon/gastric cancer, and leukemia.

[4] = tested on: AGS; assay: Proliferation assay (CellTiter Glo); format: cell-based; settings: 96 hours
Protocol: as §2

[5] = tested on: Capan-1; assay: Proliferation assay (CellTiter Glo); format: cell-based; settings: 96 hours
Protocol: as §2

[6] = tested on: H358; assay: Proliferation assay (CellTiter Glo); format: cell-based; settings: HE58, 96 hours
Protocol: as §2

[7] = tested on: H441; assay: Proliferation assay (CellTiter Glo); format: cell-based; settings: 96 hours
Protocol: as §2

[8] = tested on: H727; assay: Proliferation assay (CellTiter Glo); format: cell-based; settings: 96 hours
Protocol: as §2

[9] = tested on: HCT116; assay: Proliferation assay (CellTiter Glo); format: cell-based; settings: 96 hours
Protocol: as §2

[10] = tested on: KP-4; assay: Proliferation assay (CellTiter Glo); format: cell-based; settings: 96 hours
Protocol: as §2

[11] = tested on: LS180; assay: Proliferation assay (CellTiter Glo); format: cell-based; settings: 96 hours
Protocol: as §2

[12] = tested on: SW620; assay: Proliferation assay (CellTiter Glo); format: cell-based; settings: 96 hours
Protocol: as §2

[13] = tested on: MiaPaCa-2; assay: Proliferation assay (CellTiter Glo); format: cell-based; settings: 96 hours
[14] = tested on: HL60; assay: Proliferation assay (CellTiter Glo); format: cell-based, human; settings: 96 hours
Protocol: as §2

[15] = tested on: THP1; assay: Proliferation assay (CellTiter Glo); format: cell-based, human; settings: 96 hours
Protocol: as §2

[16] = tested on: BxPC-3; assay: Proliferation assay (CellTiter Glo); format: cell-based; settings: BxPC-3 (RAS WT); 96 hours
Protocol: as §2
(§3) Other cancer cell lines having wild-type K-RAS status and K-RAS mutation at G12 were also screened using the PKC activator compounds. […] K104 was tested in a range of 0.03 nM-0.2 μM. […] The dose ranges were adjusted downward to 0.46 nM-3 μM for K102 and 0.08 nM-0.5 μM for K103 for some cell lines. The results of the screening of cancer cells lines with wild-type K-RAS status and K-RAS mutations at the G12 positions are presented in Table 7.

[17] = tested on: Colo205; assay: Proliferation assay (CellTiter Glo); format: cell-based; settings: Colo205 (RAS WT); 96 hours
Protocol: as §2, §3

[18] = tested on: H1915; assay: Proliferation assay (CellTiter Glo); format: cell-based; settings: H1915 (RAS WT); 96 hours
Protocol: as §2, §3

[19] = tested on: H838; assay: Proliferation assay (CellTiter Glo); format: cell-based; settings: H838 (RAS WT); 96 hours
Protocol: as §2, §3

[20] = tested on: HT29; assay: Proliferation assay (CellTiter Glo); format: cell-based; settings: HT29 (RAS WT); 96 hours
Protocol: as §2, §3

[21] = tested on: RPMI8226; assay: Proliferation assay (CellTiter Glo); format: cell-based; settings: RPM18226; 96 hours
Protocol: as §2, §3

[22] = tested on: SW900; assay: Proliferation assay (CellTiter Glo); format: cell-based; settings: SW900 (K-RAS: G12V); 96 hours
Protocol: as §2, §3

Q: With CS(=O)(=O)c1ccc(C(=O)Nc2ccc(Cl)c(-c3ccccn3)c2)c(Cl)c1 [Vismodegib] as the compound, how does the “Combination in A549: K101A (synergism/antagonism)” value [1] read?
A: Synergism

Q: And the “Combination in A549: K102 (synergism/antagonism)” value [1]?
A: Synergism

Q: What about the “effect in combination with the PKC activator compounds in inhibiting the growth of A549 cells” value [1] of the same compound?
A: strong synergy

Q: And the “inhibition of cell proliferation by the agent alone” value [1]?
A: did not inhibit

Q: What about the “inhibition of proliferation by the agent alone” value ([2]; alone at 10 μM) of the same compound?
A: did not inhibit

Q: What about the “effect in combination with K101A or K102 (synergy)” value ([2]; at 1 μM) of the same compound?
A: not

Q: What about the “effect in combination with K101A or K102” value ([2]; at 10 μM) of the same compound?
A: synergy

Q: What does the source list for CC(=O)OC12CC(C)C3(O)C(C=C(CO)CC4(O)C(O)C(C)=CC43)C1C2(C)C (centres unmarked) [Compound K101C]?
A: EC50 ([3]; A549 (K-RAS: G12S), absolute EC50, read-out: Ab EC50): 13 µM; Top Inhibition % ([3]; A549, % of top inhibition): 70.3%; EC50 ([3]; A549, relative EC50, read-out: Re EC50): 6.68 µM; EC50 ([4]; AGS (gastric, K-RAS: G12D), absolute EC50, read-out: Ab EC50): > 30 µM; Top Inhibition % ([4]; AGS, % of top inhibition): 25.3%; EC50 ([4]; AGS, relative EC50, read-out: Re EC50): 11 µM; EC50 ([5]; Capan-1 (K-RAS: G12V), absolute EC50, read-out: Ab EC50): > 30 µM; Top Inhibition % ([5]; Capan-1, % of top inhibition): 35.7%; EC50 ([5]; Capan-1, relative EC50, read-out: Re EC50): 5.4 µM; Top Inhibition % ([6]; % of top inhibition): 44.0%; EC50 ([6]; absolute EC50, read-out: Ab EC50): > 30 µM; EC50 ([6]; relative EC50, read-out: Re EC50): 4.98 µM; EC50 ([7]; H441 (K-RAS: G12V), absolute EC50, read-out: Ab EC50): > 30 µM; Top Inhibition % ([7]; H441, % of top inhibition): 37.0%; EC50 ([7]; H441, relative EC50, read-out: Re EC50): 7.44 µM; EC50 ([8]; H727 (K-RAS: G12V), absolute EC50, read-out: Ab EC50): > 30 µM; Top Inhibition % ([8]; H727, % of top inhibition): 42.8%; EC50 ([8]; H727, relative EC50, read-out: Re EC50): 3.61 µM; EC50 ([9]; HCT116 (K-RAS: G13D), absolute EC50, read-out: Ab EC50): > 30 µM; Top Inhibition % ([9]; HCT116, % of top inhibition): 12.2%; EC50 ([10]; KP-4 (K-RAS: G12C), absolute EC50, read-out: Ab EC50): 11 µM; Top Inhibition % ([10]; KP-4, % of top inhibition): 70.4%; EC50 ([10]; KP-4, relative EC50, read-out: Re EC50): 6.77 µM; EC50 ([11]; LS180 (K-RAS: G12D), absolute EC50, read-out: Ab EC50): > 30 µM; Top Inhibition % ([11]; LS180, % of top inhibition): 6.8%; EC50 ([12]; SW620 (K-RAS: G12V), absolute EC50, read-out: Ab EC50): > 30 µM; Top Inhibition % ([12]; SW620, % of top inhibition): 0.0%; EC50 ([13]; MiaPaCa-2 (K-RAS: G12C), absolute EC50, read-out: Ab EC50): > 30 µM; Top Inhibition % ([13]; MiaPaCa-2, % of top inhibition): 40.1%; EC50 ([13]; MiaPaCa-2, relative EC50, read-out: Re EC50): 4.37 µM; EC50 ([14]; HL60 (N-RAS: Q61L), absolute EC50, read-out: Ab EC50): 17 µM; Top Inhibition % ([14]; HL60, % of top inhibition): 63.9%; EC50 ([14]; HL60, relative EC50, read-out: Re EC50): 13 µM; EC50 ([15]; THP1 (N-RAS: G12D), absolute EC50, read-out: Ab EC50): 16 µM; Top Inhibition % ([15]; THP1, % of top inhibition): 51.4%; EC50 ([15]; THP1, relative EC50, read-out: Re EC50): 8.11 µM; Top Inhibition % [16]: 36.67%; Top Inhibition % [17]: 73.2%; Top Inhibition % [18]: 28.9%; Top Inhibition % [19]: 20.2%; Top Inhibition % [20]: 4.8%; Top Inhibition % [21]: 22.72%; Top Inhibition % [22]: 10.9%
